System: SMN protein
Experiment: cellular SMN ELISA (SMN protein elevation)
Format: cell-based
Settings: myoblast cell line from SMNdelta7 mouse model, 24 hours treatment; for SMN activity Fold: fold activation over DMSO control
In short: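 Readout is fold SMN elevation versus DMSO plus EC50, measured by anti-SMN capture ELISA with 450 nm absorbance. Lysates came from a myoblast line of the SMNdelta7 mouse model after 24 h compound exposure, with dose ranges of 20 nM–10 μM (condition 1) or 100 pM–10 μM (condition 2).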

[1] = ELISA condition 2: compound concentration 100 pM-10 uM
[2] = ELISA condition 1: compound concentration range 20 nM-10 uM

Row | EC50 [2] [nM] | Structure (SMILES) | EC50 [1] [nM] | SMN activity Fold [1] [Fold] | SMN activity Fold [2] [Fold]
1 | – | CN(c1ccc(-c2ccc(-n3cc(N)cn3)cc2O)nn1)C1CC(C)(C)NC(C)(C)C1 [Example 13-1, 5-(4-amino-1H-pyrazole-1-yl)-2-(6-(methyl(2,2,6,6-tetramethylpiperidin-4-yl)amino)pyridazin-3-yl)phenol] | 20 | 3.46 | –
2 | – | Cc1cnc(-c2cc(O)c(-c3ccc(N(C)C4CC(C)(C)NC(C)(C)C4)nn3)c(OCC3CC3)c2)o1 [Example 27-3, 3-(cyclopropylmethoxy)-2-(6-(methyl(2,2,6,6-tetramethylpiperidin-4-yl)amino)-pyridazin-3-yl)-5-(5-methyloxazol-2-yl)phenol] | 619 | 2.75 | –
3 | – | CC1(C)CC(Oc2ccc(-c3cc4ccc(OCCN5CCOCC5)cc4cc3O)nn2)CC(C)(C)N1 [Example 20-9, 7-(2-morpholinoethoxy)-3-(6-((2,2,6,6-tetramethylpiperidin-4-yl)oxy)pyridazin-3-yl)naphthalen-2-ol] | 176 | 2.44 | –
4 | – | CC1(C)CC(Nc2ccc(-c3ccc(-n4cccn4)cc3O)nn2)CC(C)(C)N1 [Example 30-1, 5-(1H-pyrazol-1-yl)-2-(6-((2,2,6,6-tetramethylpiperidin-4-yl)amino)pyridazin-3-yl)phenol] | 8 | 2.99 | –
5 | – | COc1cc(O)c(-c2ccc(N(C)C3CC(C)(C)NC(C)(C)C3)nn2)cc1OC [Example 3-10, 4,5-dimethoxy-2-{6-[methyl-(2,2,6,6-tetramethyl-piperidin-4-yl)-amino]-pyridazin-3-yl}-phenol] | 855 | 2.53 | –
6 | – | CC1(C)CC(N(CCO)c2ccc(-c3ccc(-n4cccn4)cc3O)nn2)CC(C)(C)N1 [Example 16-5, 2-{6-[(2-hydroxy-ethyl)-(2,2,6,6-tetramethyl-piperidin-4-yl)-amino]-pyridazin-3-yl}-5-pyrazol-1-yl-phenol] | 24 | 2.41 | –
7 | – | CN(c1ccc(-c2ccc3cnccc3c2)nn1)C1CC(C)(C)NC(C)(C)C1 [Example 1-15, 6-(isoquinolin-6-yl)-N-methyl-N-(2,2,6,6-tetramethylpiperidin-4-yl)pyridazin-3-amine] | 197 | 2.93 | –
8 | – | CN(c1ccc(-c2cc3ccc(O)cc3cc2O)nn1)C1CC(C)(C)NC(C)(C)C1 [Example 20-2, 3-(6-(methyl(2,2,6,6-tetramethylpiperidin-4-yl)amino)pyridazin-3-yl)naphthalene-2,7-diol] | 4 | 2.79 | –
9 | – | CC1CN(c2ccc(-c3ccc(-n4cccn4)cc3O)nn2)CC(C)N1 (stereo not shown) [Example 18-4, 2-[6-(3,5-dimethyl-piperazin-1-yl)-pyridazin-3-yl]-5-pyrazol-1-yl-phenol] | 388 | 2.84 | –
10 | – | CC1(C)CC(Oc2ccc(-c3c(O)cc(-c4cn[nH]c4)cc3F)nn2)CC(C)(C)N1 [Example 40-5, 3-fluoro-5-(1H-pyrazol-4-yl)-2-(6-((2,2,6,6-tetramethylpiperidin-4-yl)oxy)pyridazin-3-yl)phenol] | 17 | 3.59 | –
11 | – | COc1cc(-c2ccc(-c3ccc(N(C)C4CC(C)(C)NC(C)(C)C4)nn3)c(O)c2)ccn1 [Example 41-8, 5-(2-methoxypyridin-4-yl)-2-(6-(methyl(2,2,6,6-tetramethylpiperidin-4-yl)amino)pyridazin-3-yl)phenol] | 62 | 3.18 | –
12 | – | Cc1cnc(-c2cc(O)c(-c3ccc(N(C)C4CC(C)(C)NC(C)(C)C4)nn3)c(OCc3ccccc3)c2)o1 [Example 27-1, 3-(benzyloxy)-2-(6-(methyl(2,2,6,6-tetramethylpiperidin-4-yl)amino)pyridazin-3-yl)-5-(5-methyloxazol-2-yl)phenol] | 305 | 2.35 | –
13 | – | Cc1nc(-c2ccc(-c3ccc(N(C)C4CC(C)(C)NC(C)(C)C4)nn3)c(O)c2)cn1C [Example 42-10, 5-(1,2-dimethyl-1H-imidazol-4-yl)-2-(6-(methyl(2,2,6,6-tetramethylpiperidin-4-yl)amino)pyridazin-3-yl)phenol] | 57 | 3.10 | –
14 | – | CN1C(C)(C)CC(Oc2ccc(-c3ccc(-n4cccn4)cc3O)nn2)CC1(C)C [Example 17-11, 2-[6-(1,2,2,6,6-pentamethyl-piperidin-4-yloxy)-pyridazin-3-yl]-5-pyrazol-1-yl-phenol] | 665 | 3.01 | –
15 | – | CC(=O)NCCCOc1ccc2cc(-c3ccc(N(C)C4CC(C)(C)NC(C)(C)C4)nn3)c(O)cc2c1 [Example 20-6, N-[3-(7-hydroxy-6-{6-[methyl-(2,2,6,6-tetramethyl-piperidin-4-yl)-amino]-pyridazin-3-yl}-naphthalen-2-yloxy)-propyl]-acetamide] | 50 | 2.18 | –
16 | – | CN(c1ccc(-c2ccc(-n3nccc3N)cc2O)nn1)C1CC(C)(C)NC(C)(C)C1 [Example 16-3, 5-(5-amino-1H-pyrazol-1-yl)-2-(6-(methyl-(2,2,6,6-tetramethyl-piperidin-4-yl)amino)pyridazin-3-yl)phenol] | 625 | 2.39 | –
17 | – | CN(c1ccc(-c2cc3c(cc2O)C(O)CC3)nn1)C1CC(C)(C)NC(C)(C)C1 (stereo not shown) [Example 35-4, 5-(6-(methyl(2,2,6,6-tetramethylpiperidin-4-yl)amino)pyridazin-3-yl)-2,3-dihydro-1H-indene-1,6-diol] | 131 | 2.11 | –
18 | 17 | CN1C(C)(C)CC(Nc2ccc(-c3ccc(-n4cccn4)cc3O)nn2)CC1(C)C [Example 18-14, 2-[6-(1,2,2,6,6-pentamethyl-piperidin-4-ylamino)-pyridazin-3-yl]-5-pyrazol-1-yl-phenol] | – | – | 2.62
19 | – | CN(c1ccc(-c2cc3ccc(C(F)F)cc3cc2O)nn1)C1CC(C)(C)NC(C)(C)C1 [Example 24-10, 7-(difluoromethyl)-3-(6-(methyl(2,2,6,6-tetramethylpiperidin-4-yl)amino)pyridazin-3-yl)naphthalen-2-ol] | 113 | 3.14 | –
20 | 310 | CN(c1ccc(-c2cc3ccc(OCCCNC(=O)OC(C)(C)C)cc3cc2O)nn1)C1CC(C)(C)NC(C)(C)C1 [Example 20-4, [3-(7-hydroxy-6-{6-[methyl-(2,2,6,6-tetramethyl-piperidin-4-yl)-amino]-pyridazin-3-yl}-naphthalen-2-yloxy)-propyl]-carbamic acid tert-butyl ester] | – | – | 2.32
21 | – | CN(C)c1ccc(-c2ccc(-c3ccc(N(C)C4CC(C)(C)NC(C)(C)C4)nn3)c(O)c2)cn1 [Example 41-10, 5-(6-(dimethylamino)pyridin-3-yl)-2-(6-(methyl(2,2,6,6-tetramethylpiperidin-4-yl)amino)pyridazin-3-yl)phenol] | 59 | 2.80 | –
22 | – | Cc1cnc(-c2ccc(-c3ccc(N(C)C4CC(C)(C)NC(C)(C)C4)nn3)c(O)c2)o1 [Example 10-1, 5-(5-methyl-oxazol-2-yl)-2-{6-[methyl-(2,2,6,6-tetramethyl-piperidin-4-yl)-amino]-pyridazin-3-yl}-phenol] | 31 | 2.99 | –
23 | – | Oc1cc(-n2cccn2)ccc1-c1ccc(N2CCCNCC2)nn1 [Example 18-6, 2-(6-[1,4]diazepan-1-yl-pyridazin-3-yl)-5-pyrazol-1-yl-phenol] | 268 | 2.54 | –

Reference: patent US10195196B2, “1,4-disubstituted pyridazine analogs there of and methods for treating SMN-deficiency-related conditions” (NOVARTIS AG, priority 2012, dated 2019)
